The numbers were not newly measured in patent US20130190270A1, “Method for Improving Vein Performance in Bypass Surgery” (priority 2012, published 2013), which cites them from elsewhere.

Where two headings read alike, the source gives them in different places.

In one data set the test system is circulating sPLA2-IIA. The following applies: patients who underwent CABG.
The subject of data set [1] is atherosclerosis. The following applies: mice.
The subject of data set [2] is atherosclerosis. The following applies: guinea pigs.
For data set [3], the system named is atherosclerosis. The following applies: humans.

Regarding heparin, in the data set with circulating sPLA2-IIA, the “effect on circulating sPLA2-IIA levels” value is “induce increased circulating sPLA2-IIA levels”.
With `CCc1c(C(=O)C(N)=O)c2c(OCC(=O)O)cccc2n1Cc1ccccc1`, the effect on atherosclerosis entry in the data set with atherosclerosis [1], with atherosclerosis [2] and in the data set with atherosclerosis [3] was “can reduce atherosclerosis” each time.
